Among the test systems are Escherichia coli UB1005; Escherichia coli K88; Escherichia coli K99; Escherichia coli 780; Staphylococcus aureus 75.
Common to all, as to assay: ≥ marks a high value that may be exact or a test limit, other limits are often not marked, values filed in µg/mL are converted to µM
The test system of assay [1] is Pseudomonas aeruginosa ATCC 27853.
For assay [2], the system named is Salmonella enterica subsp. enterica serovar Typhimurium C77-31.
The subject of assay [3] is Lacticaseibacillus rhamnosus 1.0385.
The test system of assay [4] is Salmonella enterica subsp. enterica serovar Typhimurium ATCC 14028.
Assay [5] has as its system Lactiplantibacillus plantarum 8014.
Assay [6] relates to Lacticaseibacillus rhamnosus 1.0911.
Assay [7] has as its system Staphylococcus aureus ATCC 25923.
The subject of assay [8] is Lacticaseibacillus rhamnosus 1.0936.
In assay [9] the test system is Staphylococcus aureus ATCC 43300.
Assay [10] concerns Escherichia coli ATCC 25922.
The subject of assay [11] is Lacticaseibacillus rhamnosus 7469.
The test system of assay [12] is Salmonella enterica subsp. enterica serovar Pullorum C79-13.
Assay [13] deals with Candida albicans ATCC 36232.
For assay [14], the system named is Staphylococcus aureus ATCC 6538.
Assay [15] deals with Micrococcus luteus ATCC 9341.
Assay [16] has as its system Staphylococcus aureus ATCC 29213.
The subject of assay [17] is Pseudomonas aeruginosa ATCC 9027.
Assay [18] concerns Staphylococcus aureus 113.
The subject of assay [19] is Acinetobacter baumannii 9931.
Assay [20] relates to Staphylococcus epidermidis ATCC 12228.
Assay [21] deals with Klebsiella pneumoniae ATCC 700603.
The subject of assay [22] is Acinetobacter baumannii ATCC 19606.
The subject of assay [23] is Pseudomonas aeruginosa 50.
Assay [24] concerns Bacillus subtilis ATCC 23857.

Data on four compounds can be found in DBAASP.

In brackets after ≈: the same amount, converted by molar mass. Several values for one entry are separate records, joined by “and”; a condition that tells them apart may be missing. Equal values may be shown once.

As usually defined, the MIC is the least concentration at which growth counts as inhibited. High values mean weaker potency, low ones greater potency. Consider `C[C@@H]1NC(=O)[C@@H](N)CSSC[C@@H](C(=O)N[C@@H](CCCN=C(N)N)C(=O)N[C@@H](Cc2c[nH]c3ccccc23)C(=O)N[C@@H](Cc2c[nH]c3ccccc23)C(=O)N[C@@H](Cc2c[nH]c3ccccc23)C(=O)N[C@@H](CCCN=C(N)N)C(=O)N[C@@H](CCCN=C(N)N)C(N)=O)NC(=O)[C@H](Cc2ccccc2)NC(=O)[C@H](Cc2ccc(O)cc2)NC(=O)[C@H](CO)NC1=O` [CASYFCRWWWRR], for which the minimal inhibitory concentration (MIC) in assay [1] is more than 64 µM; in [2], not below 32 µM; in assay [3] it was not below 64 µM; in [4], 64 µM (≈ 110 µg/mL); in [5], not below 64 µM; in [6], not below 64 µM. The MIC was 4 µM (≈ 6.87 µg/mL) in [7]; not below 64 µM in [8]; 8 µM (≈ 13.7 µg/mL) with Escherichia coli UB1005; not below 32 µM in the assay with Escherichia coli K88; 4 µM (≈ 6.87 µg/mL) in [9]; 8 µM (≈ 13.7 µg/mL) in [10]. The MIC is not below 64 µM in assay [11], 8 µM (≈ 13.7 µg/mL) in assay [12] and 4 µM (≈ 6.87 µg/mL) against Escherichia coli K99.
With `CC(C)[C@H](NC(=O)[C@H](CCCCN)NC(=O)[C@H](Cc1ccccc1)NC(=O)[C@@H](NC(=O)[C@@H](NC(=O)[C@@H](N)CCCCN)C(C)C)C(C)C)C(=O)N[C@@H](CCCCN)C(=O)N[C@@H](Cc1ccccc1)C(=O)N[C@@H](CCCCN)C(=O)N[C@@H](CCCCN)C(=O)N[C@@H](CCCCN)C(N)=O` [KVVFKVKFKKK], the MIC in assay [13] was 4.53 µM and 2.27 µM and 3.21 µM; in assay [14] it was 2.27 µM (≈ 3.13 µg/mL); in [15], 2.27 µM (≈ 3.13 µg/mL).
With `C[C@H](NC(=O)[C@H](C)NC(=O)[C@H](Cc1c[nH]c2ccccc12)NC(=O)[C@H](Cc1c[nH]c2ccccc12)NC(=O)[C@H](Cc1c[nH]c2ccccc12)NC(=O)[C@@H](N)CCCN=C(N)N)C(N)=O` [RWWWAA], the minimal inhibitory concentration (MIC) in assay [1] is more than 64 µM; in assay [2], not below 64 µM; in [16] it was more than 64 µM; in assay [3] it was not below 64 µM; in assay [4], more than 64 µM; in assay [5], not below 64 µM. In addition, the minimum inhibitory concentration (MIC) in assay [6] is not below 64 µM; in assay [7] it was more than 64 µM; in assay [8], not below 64 µM; in the assay with Escherichia coli UB1005 it was not below 64 µM; against Escherichia coli K88 it was not below 64 µM; in assay [9], more than 64 µM. Moreover, the MIC in [10] is more than 64 µM; in assay [11] it was not below 64 µM; in assay [12] it was not below 64 µM; in the assay on Escherichia coli K99, not below 64 µM.
For `NC(=O)[C@H](Cc1c[nH]c2ccccc12)NC(=O)[C@H](CCCN=C(N)N)NC(=O)[C@H](Cc1c[nH]c2ccccc12)NC(=O)[C@H](Cc1c[nH]c2ccccc12)NC(=O)[C@H](CCCN=C(N)N)NC(=O)[C@H](Cc1c[nH]c2ccccc12)NC(=O)[C@H](Cc1c[nH]c2ccccc12)NC(=O)[C@H](CCCN=C(N)N)NC(=O)[C@H](Cc1c[nH]c2ccccc12)NC(=O)[C@H](Cc1c[nH]c2ccccc12)NC(=O)[C@H](CCCN=C(N)N)NC(=O)[C@H](Cc1c[nH]c2ccccc12)NC(=O)[C@H](Cc1c[nH]c2ccccc12)NC(=O)[C@H](CCCN=C(N)N)NC(=O)[C@@H](N)Cc1c[nH]c2ccccc12` [WRWWRWWRWWRWWRW], the MIC in the assay with Escherichia coli 780 stood at 16 µM (≈ 42.6 µg/mL); in assay [1], 16 µM (≈ 42.6 µg/mL); in assay [17] it was 16 µM (≈ 42.6 µg/mL); in assay [16], 8 µM (≈ 21.3 µg/mL); in [18] it was 4 µM (≈ 10.6 µg/mL); in assay [19], 16 µM (≈ 42.6 µg/mL). Moreover, the MIC in assay [7] is 8 µM and 16 µM; in assay [20], 4 µM (≈ 10.6 µg/mL); in the assay on Staphylococcus aureus 75, 8 µM (≈ 21.3 µg/mL); in assay [21] it was 16 µM (≈ 42.6 µg/mL); in assay [22], 16 µM (≈ 42.6 µg/mL); in assay [23], not below 32 µM. The compound further returned an MIC in assay [24] of 4 µM (≈ 10.6 µg/mL).
